From patent US20050148570A1, “Novel substituted alkane compounds and uses thereof” (priority 2001, published 2005)
Values after ≈ are worked out from the molar mass of the structure shown. Values belong to the compound of their own block, whether it stands above or below them.

Key:
[1] = tested on: M. smegimatis; test: MIC, broth dilution method; type: cell-based; conditions: for MIC: read-out: MIC Anti-Bacterial Activity
Experimental: (§1) Antibacterial activity can be determined by several standard methods well known by those skilled in the art, including disc diffusions methods, broth dilution minimal inhibitory concentration (MIC) methods, etc., including the detailed method outlined below. Cultures of bacteria are initially brought up from the freezer by streaking a loopful onto agar plates under the appropriate conditions. For instance stocks are streaked onto chocolate agar and then incubated for 18 hours at 35-37° C. in a 5% CO2 incubator. Five to 10 colonies are picked from the chocolate agar plate for subculture to Brain-Heart Infusion (BHI) broth or Mueller Hinton broth or BHI containing 4% serum and incubated under the appropriate conditions. The ability of the test compound to act as an antimicrobial is determined by the ability to inhibit bacterial, algae, or fungal growth in vitro. The optical density of the culture of organisms in the presence of an active compound is compared to the optical density of the same organism untreated. The activity of the compounds is described as either negative or the lowest concentration inhibiting growth.

[2] = tested on: S. aureus; test: MIC, broth dilution method; type: cell-based; conditions: for MIC: Staphylococcus aureus, read-out: Antibacterial Activity against S. aureus MIC
Experimental: as §1

[3] = tested on: methicillin-sensitive Staphylococcus aureus; test: Wound healing model (FIG. 1); type: in vivo; conditions: methicillin-susceptible Staphylococcus aureus; mice; composition applied topically twice daily; sampled 72 hours post-infection
Experimental: (§2) FIG. 1. Efficacy of a composition comprising the compound of Example 9 in the wound healing model. A defined inoculum of approximately 10^5 CFU of methicillin-sensitive Staphylococcus aureus in 20 μl culture medium was pipetted into a wound approximately 1 cm^2 created by removal of the epidermis from the shaved backs of mice. After 24 hours, the composition comprising Example 9, placebo control or positive control ointment was applied twice daily. Approximately, seventy two hours post-infection, the wound was sampled and appropriate dilutions plated on nutritive agars for determination of microbial burden. The number of colony forming units (CFU) of methicillin-sensitive Staphylococcus aureus per wound is shown.
(§3) The wound healing model, using methods generally known by those skilled in the art, is used to measure the efficacy of topically applied compounds in suitable vehicles against any bacteria, for example, Staphylococcus epidermis, Staphylococcus aureus, Streptococcus pyrogenes, Haemophilus influenzae, or mixtures thereof. By removing several epidermal layers by surgical procedure, a superficial wound of approximately 1 cm^2 was created. About 10^5cfu/20 ul of culture medium of any bacteria, for example, S aureus, was applied to the wound. […]

[4] = tested on: methicillin-resistant Staphylococcus aureus; test: Wound healing model (FIG. 2); type: in vivo; conditions: mice, composition applied topically twice daily, sampled 72 hours post-infection
Experimental: as §2, with “2.” for “1.”, “methicillin-resistant” for “methicillin-sensitive”
as §3

[5] = tested on: Staphylococcus epidermidis; test: Wound healing model (FIG. 3); type: in vivo; conditions: mice, composition applied topically twice daily, sampled 72 hours post-infection
Experimental: as §2, with “3.” for “1.”, “epidermis” for “aureus”
as §3

[6] = tested on: C. diphtheriae; test: MIC, broth dilution method; type: cell-based
Experimental: as §1

[7] = tested on: E. faecalis; test: MIC, broth dilution method; type: cell-based
Experimental: as §1

[8] = tested on: H. influenzae; test: MIC, broth dilution method; type: cell-based
Experimental: as §1

[9] = tested on: H. pylori; test: MIC, broth dilution method; type: cell-based
Experimental: as §1

[10] = tested on: M. catarrhalis; test: MIC, broth dilution method; type: cell-based
Experimental: as §1

[11] = tested on: S. epidermidis; test: MIC, broth dilution method; type: cell-based
Experimental: as §1

[12] = tested on: S. pneumoniae; test: MIC, broth dilution method; type: cell-based
Experimental: as §1

[13] = tested on: S. pyogenes; test: MIC, broth dilution method; type: cell-based
Experimental: as §1

Structure (SMILES): CCCCCC(C)(c1ccc(O)c(C)c1)c1ccc(O)c(C)c1 [Example 9, 2,2-Bis(4-hydroxy-3-methylphenyl)heptane]
- MIC [1]: 2 µg/mL (≈ 6.4 µM)
- MIC [2]: 1 µg/mL (≈ 3.2 µM)
- reducing the population levels of pathogenic bacteria in wound [3]: efficacious
- reducing the population levels of pathogenic bacteria in wound [4]: efficacious
- reducing the population levels of pathogenic bacteria in wound [5]: efficacious

- MIC Anti-Bacterial Activity [6]: 1 µg/mL (≈ 2.74 µM)
- MIC Anti-Bacterial Activity [7]: 1 µg/mL (≈ 2.74 µM)
- MIC Anti-Bacterial Activity [8]: 3 µg/mL (≈ 8.21 µM)
- MIC Anti-Bacterial Activity [9]: 31 µg/mL (≈ 84.9 µM)
- MIC Anti-Bacterial Activity [10]: 1 µg/mL (≈ 2.74 µM)
- MIC Anti-Bacterial Activity [1]: 1 µg/mL (≈ 2.74 µM)
- Antibacterial Activity against S. aureus MIC ([2]; S. aureus): 0.5 µg/mL
- MIC Anti-Bacterial Activity [11]: 1 µg/mL (≈ 2.74 µM)
- MIC Anti-Bacterial Activity [12]: 3 µg/mL (≈ 8.21 µM)
- MIC Anti-Bacterial Activity [13]: 13 µg/mL (≈ 35.6 µM)
Structure (SMILES): CCCCC1CC(c2ccc(O)c(Cl)c2)(c2ccc(O)c(Cl)c2)C1 [Example 8, 1,1-Bis(4-hydroxy-3-chloro-phenyl)-3-n-butyl-yclobutane]

- MIC ([6]; Corynebacterium diphtheriae, read-out: MIC Anti-Bacterial Activity): 1 µg/mL (≈ 3.08 µM)
- MIC ([7]; Enterococcus faecalis, read-out: MIC Anti-Bacterial Activity): 2 µg/mL (≈ 6.16 µM)
- MIC ([8]; Haemophilus influenzae, read-out: MIC Anti-Bacterial Activity): 1 µg/mL (≈ 3.08 µM)
- MIC ([9]; Helicobacter pylori, read-out: MIC Anti-Bacterial Activity): 16 µg/mL (≈ 49.3 µM)
- MIC ([10]; Moraxella catarrhalis, read-out: MIC Anti-Bacterial Activity): 1 µg/mL (≈ 3.08 µM)
- MIC [1]: 2 µg/mL (≈ 6.16 µM)
- MIC [2]: 1 µg/mL (≈ 3.08 µM)
- MIC ([11]; Staphylococcus epidermidis, read-out: MIC Anti-Bacterial Activity): 1 µg/mL (≈ 3.08 µM)
- MIC ([12]; Streptococcus pneumoniae, read-out: MIC Anti-Bacterial Activity): 6 µg/mL (≈ 18.5 µM)
- MIC ([13]; Streptococcus pyogenes, read-out: MIC Anti-Bacterial Activity): 6 µg/mL (≈ 18.5 µM)
- melting point: 135 to 137 °C
Structure (SMILES): CCCCC1CC(c2ccc(O)c(C)c2)(c2ccc(O)c(C)c2)C1 [Example 2, 1,1-Bis(4-hydroxy-3-methylphenyl)-3-n-butyl-cyclobutane]
